# According to patent publication US20100172848A1, “SKIN AND SURFACE DISINFECTANT COMPOSITIONS CONTAINING BOTANICALS” (The Trustees Of Columbia University In the City of New York, priority 2008, published 2010):
# Experiments:
# S. aureus [1] = assay: Five-minute kill test of solutions in 10% SDA40-B alcohol and water, colony counts on TSA; format: cell-based; settings: 5 minutes contact
# Description: Various concentrations of basil oil and acetic, lactic, and citric acids, separately and in combination, were prepared in 10 percent SDA40-B alcohol and water, and adjusted to 100 percent. Except for citric acid, which was added by weight, all other ingredients were measured by volume. 0.9 ml of each solution were dispensed in sterile culture tubes, in triplicate, and 0.1 ml of a 10^7 cfu/ml S. aureus culture was added to the tubes, vortexed, and then, five minutes later, 9.0 ml of drug inactivating medium was added to each tube. Serial dilutions were made with the drug inactivating medium. 0.5 ml of the dilutions were plated on trypticase soy agar (“TSA”) plates. As a control, water containing 10 percent SDA40-B alcohol was processed in parallel. The plates were incubated at 37° C. for 24-48 hours and then the colony counts were determined.
# The same methodology was used to test the antimicrobial activity of combinations of citric acid with other essential oils.
# Next, the same general protocol was used to test the efficacy of basil, cinammon and citronella oils against a variety of organisms, namely E. coli, P. aeruginosa, MRSA, C. albicans, and S. aureus.
# Various concentrations of cinnamon leaf oil and citric acid were dissolved in SDA 40-B alcohol (10%) and water, and adjusted to 100 percent. Except for citric acid, which was added by weight, all other ingredients were measured by volume. 0.9 ml of each solution were dispensed in sterile culture tubes, in triplicate, and 0.1 ml of 10^7 cfu/ml of S. aureus culture was added to the tubes, vortexed, and then, five minutes later, 9.0 ml of drug inactivating medium was added to each tube. Serial dilutions were made with the drug inactivating medium. 0.5 ml of the dilutions were plated on trypticase soy agar (“TSA”) plates. As a control, water containing 10% percent SDA40-B alcohol was processed in parallel. The plates were incubated at 37° C. for 24-48 hours and then the colony counts were determined.
# The following experiments were performed to evaluate the antibacterial activity of LG and Citric acid dissolved in alcohol, where the test organism used was S. aureus. Various amounts of LG oil and Citric acid were dissolved in SDA40-B alcohol, and then water was added to result in the EO concentration shown and an alcohol concentration of 10 percent. 0.9 ml of each solution were dispensed in sterile culture tubes, in triplicate, and 0.1 ml of a 10^7 cfulml S. aureus culture was added to the tubes, vortexed, and then, five minutes later, 9.0 ml of drug inactivating medium was added to each tube. Serial dilutions were made with drug inactivating medium. 0.5 ml of the dilutions were plated on trypticase soy agar (“TSA”) plates. As a control, water containing 10 percent SDA40-B alcohol was processed in parallel. The plates were incubated at 37° C. for 24-48 hours and then the colony counts were determined.
# S. aureus [2] = assay: Soap rapid antimicrobial activity (30 second kill) with bovine serum; format: cell-based
# Description: The antimicrobial activity of the above soap was tested in parallel with commercial Softsoap® containing triclosan (Softsoap Antibacterial; Colgate-Palmolive). 0.1 ml of a 10^8 cfu/ml culture of each microbe tested was mixed with 0.1 ml of bovine serum and placed in a sterile culture tube. 0.8 ml of the test soap formulation was added to the tube and vortexed for 30 seconds. Then 9.0 ml DNB was added to neutralize the activity of the soap. The tube was then vortexed and serially diluted with DNB. 0.5 ml of the diluted solution was plated on TSA plates. The same soap base lacking cinnamon oil, citric acid, and orange oil, with phosphate buffered saline mixed with the culture, were used as the controls.
# The antimicrobial activity of the above soap was tested in parallel with commercial Dial® Antibacterial Hand Soap) containing triclosan. 0.1 ml of a 10^8 cfu/ml culture of each microbe tested was mixed with 0.1 ml of bovine serum and placed in a sterile culture tube. 0.8 ml of the test soap formulation was added to the tube and vortexed for 30 seconds. Then 9.0 ml DNB was added to neutralize the activity of the soap. The tube was then vortexed and serially diluted with DNB. 0.5 ml of the diluted solution was plated on TSA plates. […]
# (§1) A mixture of 0.1 ml of 10^7 cfu/ml of S. aureus culture and 0.1 ml of bovine serum were placed in a sterile culture tube. […] 0.5 ml of the diluted solution was plated on trypticase soy agar plates, incubated at 37° C. for 24-48 hrs and the colony counts were determined. […]
# as §1
# A mixture of 0.1 ml of 10^8 cfu/ml of S. aureus culture and 0.1 ml of bovine serum were placed in a sterile culture tube. […] 0.5 ml of the diluted solution was plated on trypticase soy agar plates, incubated at 37° C. for 24-48 hrs and the colony counts were determined.
# [3] = 10 percent SDA40-B alcohol, control counts 1 × 10^6 to 5 × 10^6 (Table 67)
# [4] = 10 percent SDA40-B alcohol, control counts 1 × 10^6 to 5 × 10^6 (Table 66)
# [5] = SDA 40-B alcohol (10%) and water (Table 71)
smiles,measurement,setting,value
"CC(C)=CCCC(C)=CCCC(C)=CCO [0.25% Farnesol, Farnesol]",Log 10 reduction,S. aureus [1]; [3],0 log10
"CC(=O)O [1% Acetic acid (AA), Acetic acid]",Log 10 reduction,S. aureus [1]; [4],0.2 log10
"O=C(O)CC(O)(CC(=O)O)C(=O)O [1% Citric Acid (CA), Citric Acid]",Log 10 reduction,S. aureus [1]; [4],0.1 log10
same,Log 10 reduction,S. aureus [1]; [3],0.1 log10
same,Log10 reduction from control,"S. aureus [1]; 10 percent alcohol, control counts 1 × 10^6 to 5 × 10^6 (Table 79)",0.3 log10
same,Log 10 reduction,"S. aureus [1]; SDA 40-B alcohol (10%) and water (Table 71), listed as Citric Acid 1.0%",0.30 log10
"CC(O)C(=O)O (centres unmarked) [1% Lactic acid (LA), Lactic acid]",Log 10 reduction,S. aureus [1]; [4],2.3 log10
"CCCCCCCCC(O)CO (centres unmarked) [1,2 decanediol (0.3%)]",Log10 reduction from control,"S. aureus [2]; alkanediol 0.3% w/w where present, control counts 2 × 10^8-5 × 10^8",0.6 log10
"CCCCCCCCC(O)CO (centres unmarked) [1,2 decanediol(0.5%)]",Log10 reduction from control,"S. aureus [2]; alkanediol 0.5% w/w where present, soap pH 4.5-4.6, control counts 2 × 10^8-5 × 10^8",1.4 log10
O=C(O)CC(O)(CC(=O)O)C(=O)O [1.0 citric acid],Log10 reduction from control,"S. aureus [2]; compounds (% w/w) in soft soap lacking triclosan, PBS control counts 7 × 10^7-1 × 10^8",1.3 log10
"O=C(O)CC(O)(CC(=O)O)C(=O)O [Citric Acid 0.5%, Citric Acid]",Log 10 reduction,S. aureus [1]; [5],0.20 log10
"O=C(O)CC(O)(CC(=O)O)C(=O)O [Citric Acid 0.25%, Citric Acid]",Log 10 reduction,S. aureus [1]; [5],0.08 log10
"O=C(O)CC(O)(CC(=O)O)C(=O)O [Citric Acid 0.125%, Citric Acid]",Log 10 reduction,S. aureus [1]; [5],0.02 log10
"O=C(O)CC(O)(CC(=O)O)C(=O)O [Citric Acid 2%, Citric Acid]",Log 10 reduction,S. aureus [1]; [5],0.32 log10
